Results from patent publication US20020049223A1, “Quinoline and naphthyridine carboxylic acid antibacterials” (priority 1999, published 2002).

Experiments:
Assay in all cases: Assay B: in vitro antibacterial activity, broth microdilution MIC (NCCLS)
Format in all cases: cell-based
[1] = system: Streptococcus pneumoniae ATCC 6303; conditions: Table 2, Assay B, Mueller Hinton broth with 3% lysed horse blood, 20 to 24 hr; code F = Streptococcus pneumoniae ATCC 6303; unit assumed
Summary of the method: (§1)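 MIC is the lowest concentration with no visible growth after serial two-fold dilution in cation-adjusted Mueller Hinton broth, approximately 5×10^5 CFU/mL inoculum, 16-20 h at 35 °C in air (NCCLS). Broth for H. influenzae gets 5 g/L yeast extract, 0.3 mmol/L hematin and 15 mg/L NAD, for S. pneumoniae 3% lysed horse blood; both incubated 20-24 h.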

[2] = system: Haemophilus influenzae DILL AMP R; conditions: Table 2, Assay B, Mueller Hinton broth with yeast extract, hematin and NAD, 20 to 24 hr; code E = Haemophilus influenzae DILL AMP R; unit assumed
Summary of the method: as §1

[3] = system: Escherichia coli JUHL; conditions: Table 2, Assay B, cation-adjusted Mueller Hinton broth, 35° C., 16 to 20 hr; code D = Escherichia coli JUHL; unit assumed
Summary of the method: as §1

[4] = system: Enterococcus faecalis PIU 1967; conditions: Table 2, Assay B, cation-adjusted Mueller Hinton broth, 35° C., 16 to 20 hr; code B = Enterococcus faecalis PIU 1967; unit assumed
Summary of the method: as §1

[5] = system: Staphylococcus aureus ATCC 6538P; conditions: Table 2, Assay B, cation-adjusted Mueller Hinton broth, 35° C., 16 to 20 hr; code A = Staphylococcus aureus ATCC 6538P; unit assumed
Summary of the method: as §1

Structure (SMILES) | Antibacterial Activity (MIC's), F [1] [µg/mL] | Antibacterial Activity (MIC's), E [2] [µg/mL] | Antibacterial Activity (MIC's), D [3] [µg/mL] | Antibacterial Activity (MIC's), B [4] [µg/mL] | Antibacterial Activity (MIC's), A [5] [µg/mL]
COc1c(-c2cc3c(s2)CCCC3CN2CCOCC2)ccc2c(=O)c(C(=O)O)cn(C3CC3)c12 (stereo not drawn) [Example 126, 1-cyclopropyl-8-methoxy-7-(4-(4-morpholinylmethyl)-4,5,6,7-tetrahydro-1-benzothien-2-yl)-4-oxo-1,4-dihydro-3-quinolinecarboxylic acid] | 0.5 | 1 | 16 | 0.5 | 0.004
COc1c(-c2cc3c(s2)CCCC3NC2CCN(C)CC2)ccc2c(=O)c(C(=O)O)cn(C3CC3)c12.Cl.Cl (stereo not drawn) [Example 133, 1-cyclopropyl-8-methoxy-7-(4-((1-methyl-4-piperidinyl)amino)-4,5,6,7-tetrahydro-1-benzothien-2-yl)-4-oxo-1,4-dihydro-3-quinolinecarboxylic acid dihydrochloride] | 1 | 1 | 1 | 1 | 0.5
COc1c(-c2cc3c(s2)S(=O)(=O)CCC3O)ccc2c(=O)c(C(=O)O)cn(C3CC3)c12 (stereo not drawn) [Example 135, 1-cyclopropyl-7-(4-hydroxy-7,7-dioxido-5,6-dihydro-4H-thieno[2,3-b]thiopyran-2-yl)-8-methoxy-4-oxo-1,4-dihydro-3-quinolinecarboxylic acid] | 4 | 1 | 16 | 1 | 1
Cl.NC1CCCc2sc(-c3nc4c(cc3F)c(=O)c(C(=O)O)cn4C3CC3)cc21 (stereo not drawn) [Example 156, 7-(4-amino-4,5,6,7-tetrahydro-1-benzothien-2-yl)-1-cyclopropyl-6-fluoro-4-oxo-1,4-dihydro[1,8]naphthyridine-3-carboxylic acid hydrochloride] | 0.06 | 0.015 | 0.03 | 0.125 | 0.03
COc1c(-c2cc3c(s2)CCC/C3=N\OCc2cccnc2)ccc2c(=O)c(C(=O)O)cn(C3CC3)c12 [Example 182, 1-cyclopropyl-8-methoxy-4-oxo-7-((4E)-4-((3-pyridinylmethoxy)imino)-4,5,6,7-tetrahydro-1-benzothien-2-yl)-1,4-dihydro-3-quinolinecarboxylic acid] | 0.25 | 0.125 | 1 | 0.25 | 0.03
Cl.NC1CCCc2sc(-c3ccc4c(=O)c(C(=O)O)cn(C5CC5)c4n3)cc21 (stereo not drawn) [Example 200, 7-(4-amino-4,5,6,7-tetrahydro-1-benzothien-2-yl)-1-cyclopropyl-4-oxo-1,4-dihydro[1,8]naphthyridine-3-carboxylic acid hydrochloride] | 0.125 | 0.03 | 0.06 | 0.125 | 0.03
COc1c(-c2cc3c(s2)C(O)CNC3)ccc2c(=O)c(C(=O)O)cn(C3CC3)c12 (stereo not drawn) [Example 202, 1-cyclopropyl-7-(7-hydroxy-4,5,6,7-tetrahydrothieno[3,2-c]pyridin-2-yl)-8-methoxy-4-oxo-1,4-dihydro-3-quinolinecarboxylic acid] | 0.25 | 0.015 | 0.125 | 0.5 | 0.125
COc1c(-c2cc3c(s2)CCC(C)(CO)C3=O)ccc2c(=O)c(C(=O)O)cn(C3CC3)c12 (stereo not drawn) [Example 207, 1-cyclopropyl-7-(5-(hydroxymethyl)-5-methyl-4-oxo-4,5,6,7-tetrahydro-1-benzothien-2-yl)-8-methoxy-4-oxo-1,4-dihydro-3-quinolinecarboxylic acid] | 0.5 | 0.125 | 1 | 0.125 | 0.015
COc1c(-c2cc3c(s2)C(N)CNC3)ccc2c(=O)c(C(=O)O)cn(C3CC3)c12 (stereo not drawn) [Example 208, 7-(7-amino-4,5,6,7-tetrahydrothieno[3,2-c]pyridin-2-yl)-1-cyclopropyl-8-methoxy-4-oxo-1,4-dihydro-3-quinolinecarboxylic acid] | 0.25 | 0.06 | 0.25 | 0.5 | 0.125

More lines, now with the values ahead:

Antibacterial Activity (MIC's), F [1] [µg/mL] | Antibacterial Activity (MIC's), E [2] [µg/mL] | Antibacterial Activity (MIC's), D [3] [µg/mL] | Antibacterial Activity (MIC's), B [4] [µg/mL] | Antibacterial Activity (MIC's), A [5] [µg/mL] | Structure (SMILES)
0.03 | 0.03 | 0.125 | 0.25 | 0.004 | CNC1CCc2sc(-c3ccc4c(=O)c(C(=O)O)cn(C5CC5)c4c3OC)cc2C1.Cl (stereo not drawn) [Example 125, 1-cyclopropyl-8-methoxy-7-(5-(methylamino)-4,5,6,7-tetrahydro-1-benzothien-2-yl)-4-oxo-1,4-dihydro-3-quinolinecarboxylic acid hydrochloride]
0.5 | 0.125 | 1 | 0.25 | 0.5 | COc1c(-c2cc3c(s2)CCCC3CN(C)C)ccc2c(=O)c(C(=O)O)cn(C3CC3)c12 (stereo not drawn) [Example 127, 1-cyclopropyl-7-(4-((dimethylamino)methyl)-4,5,6,7-tetrahydro-1-benzothien-2-yl)-8-methoxy-4-oxo-1,4-dihydro-3-quinolinecarboxylic acid]
0.5 | 0.125 | 64 | 0.5 | 0.125 | COc1c(-c2cc3c(s2)S(=O)(=O)CCC3N)ccc2c(=O)c(C(=O)O)cn(C3CC3)c12.Cl (stereo not drawn) [Example 143, 7-(4-amino-7,7-dioxido-5,6-dihydro-4H-thieno[2,3-b]thiopyran-2-yl)-1-cyclopropyl-8-methoxy-4-oxo-1,4-dihydro-3-quinolinecarboxylic acid hydrochloride]
0.03 | 0.06 | 0.5 | 0.125 | 0.03 | COc1c(-c2cc3c(s2)CCCC3NCCO)ccc2c(=O)c(C(=O)O)cn(C3CC3)c12.Cl (stereo not drawn) [Example 155, 1-cyclopropyl-7-(4-((2-hydroxyethyl)amino)-4,5,6,7-tetrahydro-1-benzothien-2-yl)-8-methoxy-4-oxo-1,4-dihydro-3-ouinolinecarboxylic acid hydrochloride]
0.5 | 0.125 | 0.5 | 0.25 | 0.015 | COc1c(-c2cc3c(s2)CCC(C)C3O)ccc2c(=O)c(C(=O)O)cn(C3CC3)c12 (stereo not drawn) [Example 185, 1-cyclopropyl-7-(4-hydroxy-5-methyl-4,5,6,7-tetrahydro-1-benzothien-2-yl)-8-methoxy-4-oxo-1,4-dihydro-3-quinolinecarboxylic acid]
0.125 | 0.25 | 0.5 | 0.25 | 0.25 | COc1c(-c2cc3c(s2)CCCC3N2CC(O)C2)ccc2c(=O)c(C(=O)O)cn(C3CC3)c12.Cl (stereo not drawn) [Example 198, 1-cyclopropyl-7-(4-(3-hydroxy-1-azetidinyl)-4,5,6,7-tetrahydro-1-benzothien-2-yl)-8-methoxy-4-oxo-1,4-dihydro-3-guinolinecarboxvlic acid hydrochloride]
0.06 | 0.125 | 0.25 | 0.125 | 0.03 | COc1c(-c2cc3c(s2)CCC(C)C3N)ccc2c(=O)c(C(=O)O)cn(C3CC3)c12.Cl (stereo not drawn) [Example 199, 7-(4-amino-5-methyl-4,5,6,7-tetrahydro-1-benzothien-2-yl)-1-cyclopropyl-8-methoxy-4-oxo-1,4-dihydro-3-quinolinecarboxylic acid hydrochloride]
0.125 | ≤ 0.004 | 0.125 | 0.03 | ≤ 0.004 | COc1c(-c2cc3c(s2)CCC(F)(F)C3O)ccc2c(=O)c(C(=O)O)cn(C3CC3)c12 (stereo not drawn) [Example 204, 1-cyclopropyl-7-(5,5-difluoro-4-hydroxy-4,5,6,7-tetrahydro-1-benzothien-2-yl)-8-methoxy-4-oxo-1,4-dihydro-3-quinolinecarboxylic acid]
0.5 | 0.5 | 1 | 0.125 | 0.03 | COc1c(-c2cc3c(s2)CCC(F)(F)C3N)ccc2c(=O)c(C(=O)O)cn(C3CC3)c12 (stereo not drawn) [Example 206, 7-(4-amino-5,5-difluoro-4,5,6,7-tetrahydro-1-benzothien-2-yl)-1-cyclopropyl-8-methoxy-4-oxo-1,4-dihydro-3-quinolinecarboxylic acid]
